Structures can show the parent of a compound that is named as a salt. Where two headings read alike, the source gives them in different places.
Assays:
IKr = IKr (Homo sapiens, UniProt Q12809); conditions: background statement; cited from earlier work
ICa,L = ICa,L (Homo sapiens, UniProt Q13936); conditions: background statement; cited from earlier work
healthy subjects [1] = test: Phase 1 single ascending dose trial of intravenous HBI-3000: continuous 12-lead Holter ECG, baseline and placebo subtracted (ΔΔ) ECG intervals at Cmax; assay type: in vivo, human
Description: (§1) HBI-3000 (sulcardine sulfate) was administered to human subjects according to the protocol provided in (Clinical Trials.gov Identifier: NCT03397641. That protocol is incorporated herein by reference in its entirety.
(§2) Objective: Provided herein are the safety, tolerability, pharmacokinetics and electrocardiogram (ECG) results of a Phase 1 single ascending dose trial of intravenous (IV) HBI-3000 in healthy subjects.
(§3) Methods: […] subjects were randomized to 6 cohorts of 8 subjects to receive 1 of 5 single ascending iv doses (Table 2) of HBI-3000 or placebo (6:2), with 2 cohorts receiving the 600 mg dose. Doses of HBI-3000 ranged from 20 mg (Cohort A), 60 mg (Cohort B), 180 mg (Cohort C), 360 mg (Cohort D), to 600 mg (Cohort E and F). Drug was a lyophilized powder, reconstituted to […] then diluted in saline for delivery via intravenous infusion as a 50 mL solution over 30 minutes.
Continuous 12-lead Holter ECG data were recorded at baseline and 11 time points thereafter. Mean baseline and placebo subtracted (ΔΔ) ECG intervals (QTcF, HR, PR, QRS, and P-wave duration [PDur]) and T-wave segments (J to T peak [JTp] and T peak to T end [TpTe]) were calculated at Cmax for each dose.
Table 2 summarizes ECG data at Cmax for each dose, as predicted by mixed-effects modeling. […] The increases in QRS and PDur are consistent with block of INa-Peak. The increase in the PR interval is consistent with the increase in PDur and with both INa-Peak and ICa,L inhibition. Prolongation of TpTe is consistent with IKr block, which would be expected, in isolation, to lengthen JTp as well. The observed dose-related reduction of JTp is likely due to counteraction of the effect of HBI-3000 on IKr through its inhibition of both INa-Late, and ICa,L.

[2] = Phase 1 single ascending dose trial of intravenous HBI-3000: pharmacokinetics; assay type: in vivo; conditions: human, plasma
Description: as §1, §2, §3
In some instances, the patient is administered 350 mg of HBI-3000.

INa-Peak = INa-Peak (Homo sapiens, UniProt Q14524); conditions: background statement; cited from earlier work
INa-Late = INa-Late (Homo sapiens, UniProt Q14524); conditions: background statement; cited from earlier work
healthy subjects [3] = test: Phase 1 single ascending dose trial of intravenous HBI-3000: safety and tolerability; assay type: in vivo, human; conditions: single ascending iv doses 20-600 mg
Description: as §1, §2, §3

[4] = Chen et al.; cited from earlier work
[5] = 20 mg single iv infusion over 30 min, at Cmax 135 ng/ml, N=6, concentration-effect regression model
[6] = 60 mg single iv infusion over 30 min, at Cmax 378 ng/ml, N=6, concentration-effect regression model
[7] = 180 mg single iv infusion over 30 min, at Cmax 1530 ng/ml, N=6, concentration-effect regression model
[8] = 360 mg single iv infusion over 30 min, at Cmax 3120 ng/ml, N=5, concentration-effect regression model
[9] = 600 mg single iv infusion over 30 min, at Cmax 5280 ng/ml, N=12, concentration-effect regression model
[10] = concentration-effect regression model, iv doses 20-600 mg
[11] = 20 mg single iv infusion over 30 min, healthy subjects, N=6
[12] = 60 mg single iv infusion over 30 min, healthy subjects, N=6
[13] = 180 mg single iv infusion over 30 min, healthy subjects, N=6
[14] = 360 mg single iv infusion over 30 min, healthy subjects, N=5
[15] = 600 mg single iv infusion over 30 min, healthy subjects, N=12

IKr, sequence (Q12809 whole entry): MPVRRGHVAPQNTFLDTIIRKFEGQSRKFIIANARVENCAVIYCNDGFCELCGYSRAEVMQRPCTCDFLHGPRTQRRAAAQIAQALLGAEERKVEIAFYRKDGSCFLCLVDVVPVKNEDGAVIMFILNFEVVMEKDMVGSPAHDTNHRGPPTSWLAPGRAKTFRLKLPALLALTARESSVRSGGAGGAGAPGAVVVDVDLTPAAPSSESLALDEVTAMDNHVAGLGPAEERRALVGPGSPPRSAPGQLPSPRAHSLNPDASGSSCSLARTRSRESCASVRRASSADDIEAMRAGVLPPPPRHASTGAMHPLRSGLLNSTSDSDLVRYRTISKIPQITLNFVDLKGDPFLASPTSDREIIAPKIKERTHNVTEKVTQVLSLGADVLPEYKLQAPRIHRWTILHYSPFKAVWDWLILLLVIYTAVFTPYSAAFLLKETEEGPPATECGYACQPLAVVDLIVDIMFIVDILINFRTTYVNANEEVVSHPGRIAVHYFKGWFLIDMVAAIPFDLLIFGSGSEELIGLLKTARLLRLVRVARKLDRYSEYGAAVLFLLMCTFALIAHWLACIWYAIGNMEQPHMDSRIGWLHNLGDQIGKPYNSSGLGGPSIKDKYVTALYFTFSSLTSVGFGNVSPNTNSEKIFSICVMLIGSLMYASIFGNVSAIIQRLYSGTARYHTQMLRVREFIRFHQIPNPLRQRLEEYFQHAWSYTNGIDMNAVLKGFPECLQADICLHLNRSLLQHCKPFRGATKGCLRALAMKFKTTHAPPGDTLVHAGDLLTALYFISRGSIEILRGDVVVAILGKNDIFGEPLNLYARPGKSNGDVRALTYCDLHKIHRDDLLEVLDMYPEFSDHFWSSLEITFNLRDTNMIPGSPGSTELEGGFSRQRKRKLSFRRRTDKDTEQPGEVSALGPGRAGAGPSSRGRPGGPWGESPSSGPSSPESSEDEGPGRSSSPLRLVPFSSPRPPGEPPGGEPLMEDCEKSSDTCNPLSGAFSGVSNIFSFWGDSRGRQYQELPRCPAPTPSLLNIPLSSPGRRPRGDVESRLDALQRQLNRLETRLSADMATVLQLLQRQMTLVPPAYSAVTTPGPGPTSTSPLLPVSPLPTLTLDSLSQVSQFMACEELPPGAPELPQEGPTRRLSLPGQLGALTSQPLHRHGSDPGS
ICa,L, sequence (Q13936 whole entry): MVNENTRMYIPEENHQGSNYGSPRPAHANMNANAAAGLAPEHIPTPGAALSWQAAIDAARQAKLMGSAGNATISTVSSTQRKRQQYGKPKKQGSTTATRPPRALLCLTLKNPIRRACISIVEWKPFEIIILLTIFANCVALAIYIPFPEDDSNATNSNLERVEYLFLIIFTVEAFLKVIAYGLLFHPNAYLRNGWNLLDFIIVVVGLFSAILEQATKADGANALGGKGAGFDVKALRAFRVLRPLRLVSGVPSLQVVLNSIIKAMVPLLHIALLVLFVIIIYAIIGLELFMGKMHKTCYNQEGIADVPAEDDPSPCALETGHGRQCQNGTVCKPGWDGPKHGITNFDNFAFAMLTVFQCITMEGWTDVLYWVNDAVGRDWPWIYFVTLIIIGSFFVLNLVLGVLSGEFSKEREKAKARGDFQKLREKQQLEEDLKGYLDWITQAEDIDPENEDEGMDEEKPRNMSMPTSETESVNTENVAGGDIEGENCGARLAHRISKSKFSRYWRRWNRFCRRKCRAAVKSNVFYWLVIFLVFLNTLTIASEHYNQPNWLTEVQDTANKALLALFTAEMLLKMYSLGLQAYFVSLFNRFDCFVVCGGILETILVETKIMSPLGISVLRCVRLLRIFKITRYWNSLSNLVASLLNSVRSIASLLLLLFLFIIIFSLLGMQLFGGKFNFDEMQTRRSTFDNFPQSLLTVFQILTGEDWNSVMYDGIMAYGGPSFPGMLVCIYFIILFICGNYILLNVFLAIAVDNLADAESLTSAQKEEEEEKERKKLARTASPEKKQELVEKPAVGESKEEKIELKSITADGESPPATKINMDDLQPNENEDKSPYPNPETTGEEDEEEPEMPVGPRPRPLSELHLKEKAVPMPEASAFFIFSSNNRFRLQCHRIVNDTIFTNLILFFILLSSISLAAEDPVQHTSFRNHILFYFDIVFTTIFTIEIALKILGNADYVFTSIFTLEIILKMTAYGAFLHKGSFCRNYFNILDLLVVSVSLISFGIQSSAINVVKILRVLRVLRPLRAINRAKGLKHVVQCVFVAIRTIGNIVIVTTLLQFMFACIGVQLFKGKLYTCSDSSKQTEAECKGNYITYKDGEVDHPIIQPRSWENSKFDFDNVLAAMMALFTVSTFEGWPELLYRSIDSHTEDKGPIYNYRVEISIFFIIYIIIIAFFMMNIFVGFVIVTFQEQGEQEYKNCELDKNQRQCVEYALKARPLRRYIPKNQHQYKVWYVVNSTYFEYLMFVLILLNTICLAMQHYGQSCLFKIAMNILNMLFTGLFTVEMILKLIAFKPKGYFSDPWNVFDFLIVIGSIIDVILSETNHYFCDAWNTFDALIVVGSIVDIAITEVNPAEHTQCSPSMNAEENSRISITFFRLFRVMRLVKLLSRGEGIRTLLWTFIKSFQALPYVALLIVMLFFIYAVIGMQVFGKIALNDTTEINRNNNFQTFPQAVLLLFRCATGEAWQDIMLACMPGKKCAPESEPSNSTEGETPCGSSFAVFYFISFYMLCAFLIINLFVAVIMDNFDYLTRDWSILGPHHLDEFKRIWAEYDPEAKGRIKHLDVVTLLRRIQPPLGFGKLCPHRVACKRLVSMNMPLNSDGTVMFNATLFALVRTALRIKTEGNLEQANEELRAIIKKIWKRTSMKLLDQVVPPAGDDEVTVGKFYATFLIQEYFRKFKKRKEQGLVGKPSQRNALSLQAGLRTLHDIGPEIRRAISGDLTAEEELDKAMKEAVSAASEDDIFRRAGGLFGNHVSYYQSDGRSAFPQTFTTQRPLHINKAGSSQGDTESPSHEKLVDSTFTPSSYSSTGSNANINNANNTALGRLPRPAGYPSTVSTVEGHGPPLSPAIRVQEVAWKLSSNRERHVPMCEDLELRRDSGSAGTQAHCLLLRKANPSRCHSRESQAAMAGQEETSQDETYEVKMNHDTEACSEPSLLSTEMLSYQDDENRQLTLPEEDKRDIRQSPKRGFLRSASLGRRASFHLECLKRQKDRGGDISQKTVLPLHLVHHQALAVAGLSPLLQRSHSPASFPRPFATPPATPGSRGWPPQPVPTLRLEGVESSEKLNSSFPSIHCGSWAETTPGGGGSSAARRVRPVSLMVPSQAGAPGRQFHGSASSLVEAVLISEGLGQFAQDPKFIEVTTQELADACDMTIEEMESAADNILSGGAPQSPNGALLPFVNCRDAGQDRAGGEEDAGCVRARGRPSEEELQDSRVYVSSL
ICa,L, sequence (Q08289 whole entry partner): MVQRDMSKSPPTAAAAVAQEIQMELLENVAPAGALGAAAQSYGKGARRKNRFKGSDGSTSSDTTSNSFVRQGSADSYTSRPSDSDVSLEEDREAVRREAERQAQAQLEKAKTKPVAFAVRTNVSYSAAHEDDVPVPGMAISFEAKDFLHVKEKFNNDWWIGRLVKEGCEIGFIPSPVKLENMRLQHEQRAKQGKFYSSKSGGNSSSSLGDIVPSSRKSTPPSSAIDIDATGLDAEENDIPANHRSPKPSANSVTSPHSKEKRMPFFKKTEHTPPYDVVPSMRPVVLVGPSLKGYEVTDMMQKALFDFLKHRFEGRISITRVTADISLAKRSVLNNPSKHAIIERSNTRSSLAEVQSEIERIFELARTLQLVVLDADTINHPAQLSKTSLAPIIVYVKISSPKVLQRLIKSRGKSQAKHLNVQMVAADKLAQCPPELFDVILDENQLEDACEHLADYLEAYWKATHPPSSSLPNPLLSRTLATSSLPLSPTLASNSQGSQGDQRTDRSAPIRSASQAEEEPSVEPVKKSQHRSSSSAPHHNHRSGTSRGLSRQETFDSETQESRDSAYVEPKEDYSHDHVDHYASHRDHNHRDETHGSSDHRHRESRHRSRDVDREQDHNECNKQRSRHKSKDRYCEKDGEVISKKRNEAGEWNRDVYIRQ
ICa,L, sequence (P54289 25-946 partner limits assumed): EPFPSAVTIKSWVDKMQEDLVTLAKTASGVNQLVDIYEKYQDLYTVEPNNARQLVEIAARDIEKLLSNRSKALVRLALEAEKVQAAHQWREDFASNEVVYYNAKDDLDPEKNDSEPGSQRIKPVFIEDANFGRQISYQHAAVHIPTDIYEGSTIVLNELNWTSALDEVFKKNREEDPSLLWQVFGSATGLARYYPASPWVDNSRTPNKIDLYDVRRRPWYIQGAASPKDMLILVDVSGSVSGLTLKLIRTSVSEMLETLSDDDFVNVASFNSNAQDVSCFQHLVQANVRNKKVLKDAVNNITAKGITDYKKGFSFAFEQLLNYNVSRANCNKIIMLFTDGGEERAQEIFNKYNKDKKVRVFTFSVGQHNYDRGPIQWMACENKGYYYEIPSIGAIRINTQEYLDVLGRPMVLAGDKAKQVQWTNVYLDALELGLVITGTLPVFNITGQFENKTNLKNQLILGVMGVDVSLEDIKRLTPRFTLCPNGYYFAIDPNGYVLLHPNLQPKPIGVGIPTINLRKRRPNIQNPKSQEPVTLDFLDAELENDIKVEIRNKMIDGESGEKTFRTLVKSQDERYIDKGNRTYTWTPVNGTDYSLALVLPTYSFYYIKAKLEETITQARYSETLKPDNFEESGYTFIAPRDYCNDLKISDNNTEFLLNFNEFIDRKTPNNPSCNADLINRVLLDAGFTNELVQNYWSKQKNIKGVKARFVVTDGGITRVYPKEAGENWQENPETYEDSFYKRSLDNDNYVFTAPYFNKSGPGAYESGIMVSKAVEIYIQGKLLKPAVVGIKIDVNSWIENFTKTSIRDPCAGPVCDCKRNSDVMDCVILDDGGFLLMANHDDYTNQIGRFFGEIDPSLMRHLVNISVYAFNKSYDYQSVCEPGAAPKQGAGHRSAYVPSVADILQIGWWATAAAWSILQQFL
ICa,L, sequence (P54289 947-1103 partner limits assumed): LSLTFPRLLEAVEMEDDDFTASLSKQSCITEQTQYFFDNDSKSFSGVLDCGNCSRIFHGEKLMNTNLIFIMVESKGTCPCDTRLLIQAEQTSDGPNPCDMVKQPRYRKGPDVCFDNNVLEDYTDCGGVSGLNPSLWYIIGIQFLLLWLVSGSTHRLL

COc1ccc(S(=O)(=O)NCc2cc(CN3CCCC3)c(O)c(CN3CCCC3)c2)cc1 [HBI-3000, sulcardine sulfate]
in vitro inhibitory effects on IKr (IKr): relatively balanced in vitro inhibitory effects | in vitro inhibitory effects on ICa,L (ICa,L): relatively balanced in vitro inhibitory effects | ΔΔHR (healthy subjects [1]; [5]): 1.74 bpm | ΔΔJTp (healthy subjects [1]; [5]): -2.87 ms | ΔΔPDur (healthy subjects [1]; [5]): 3.17 ms | ΔΔPR (healthy subjects [1]; [5]): 5.08 ms | ΔΔQRS (healthy subjects [1]; [5]): -0.08 ms | ΔΔQTcF (healthy subjects [1]; [5]): 1.40 ms | ΔΔTpTe (healthy subjects [1]; [5]): 1.95 ms | ΔΔHR (healthy subjects [1]; [6]): 2.21 bpm | ΔΔJTp (healthy subjects [1]; [6]): -5.28 ms | ΔΔPDur (healthy subjects [1]; [6]): 3.71 ms | ΔΔPR (healthy subjects [1]; [6]): 6.06 ms | ΔΔQRS (healthy subjects [1]; [6]): 0.54 ms | ΔΔQTcF (healthy subjects [1]; [6]): 2.35 ms | ΔΔTpTe (healthy subjects [1]; [6]): 2.20 ms | ΔΔHR (healthy subjects [1]; [7]): 4.44 bpm | ΔΔJTp (healthy subjects [1]; [7]): -15.09 ms | ΔΔPDur (healthy subjects [1]; [7]): 6.24 ms | ΔΔPR (healthy subjects [1]; [7]): 10.73 ms | ΔΔQRS (healthy subjects [1]; [7]): 3.50 ms | ΔΔQTcF (healthy subjects [1]; [7]): 6.89 ms | ΔΔTpTe (healthy subjects [1]; [7]): 3.37 ms | ΔΔHR (healthy subjects [1]; [8]): 7.70 bpm | ΔΔJTp (healthy subjects [1]; [8]): -24.60 ms | ΔΔPDur (healthy subjects [1]; [8]): 9.93 ms | ΔΔPR (healthy subjects [1]; [8]): 17.53 ms | ΔΔQRS (healthy subjects [1]; [8]): 7.81 ms | ΔΔQTcF (healthy subjects [1]; [8]): 13.50 ms | ΔΔTpTe (healthy subjects [1]; [8]): 5.07 ms | ΔΔHR (healthy subjects [1]; [9]): 12.75 bpm | ΔΔJTp (healthy subjects [1]; [9]): -28.10 ms | ΔΔPDur (healthy subjects [1]; [9]): 15.67 ms | ΔΔPR (healthy subjects [1]; [9]): 28.10 ms | ΔΔQRS (healthy subjects [1]; [9]): 14.50 ms | ΔΔQTcF (healthy subjects [1]; [9]): 23.77 ms | ΔΔTpTe (healthy subjects [1]; [9]): 7.72 ms | onset and loss of pharmacodynamic effect (healthy subjects [1]; about 400 mg to about 800 mg according to the protocol, human subjects): quickly effective and then quickly loses its effect | Slope, ΔΔHR (healthy subjects [1]; [10]): 0.0019 | Slope, ΔΔJTp (healthy subjects [1]; [10]): −0.0000 | Slope, ΔΔPDur (healthy subjects [1]; [10]): 0.0022 | Slope, ΔΔPR (healthy subjects [1]; [10]): 0.0040 | Slope, ΔΔQRS (healthy subjects [1]; [10]): 0.0026 | Slope, ΔΔQTcF (healthy subjects [1]; [10]): 0.0039 | Slope, ΔΔTpTe (healthy subjects [1]; [10]): 0.0010 | changes in ECG parameters (healthy subjects [1]; single ascending iv doses 20-600 mg, healthy subjects): dose-proportional changes in all ECG parameters | AUC(0-t) ([2]; intravenous, 350 mg, read-out: AUC (0-24)): 2880 ng·h/mL | AUC(0-t) ([2]; intravenous, 350 mg, read-out: AUC (0-last)): 3370 ng·h/mL | Cmax ([2]; intravenous, 350 mg, read-out: Cmax): 3080 ng/mL | AUC(0-inf) ([2]; intravenous, 350 mg dose): 3720 ng·h/mL | half-life ([2]; intravenous, 350 mg dose): 43 h | Tmax ([2]; intravenous, 350 mg dose, read-out: Tmax): 27 min | Cmax ([2]; iv, 20 mg, 20 mg single iv infusion over 30 min, N=6, as used for ΔΔECG model, read-out: Cmax (Table 2)): 135 ng/mL | AUC(0-t) ([2]; iv, 20 mg, 20 mg single iv infusion over 30 min, healthy subjects, N=6, read-out: AUC (0-24)): 89.7 ng·h/mL | AUC(0-t) ([2]; iv, 20 mg, 20 mg single iv infusion over 30 min, healthy subjects, N=6, read-out: AUC (0-last)): 86.2 ng·h/mL | Cmax ([2]; iv, 20 mg, 20 mg single iv infusion over 30 min, healthy subjects, N=6, read-out: Cmax): 131 ng/mL | Cmax ([2]; iv, 60 mg, 60 mg single iv infusion over 30 min, N=6, as used for ΔΔECG model, read-out: Cmax (Table 2)): 378 ng/mL | AUC(0-t) ([2]; iv, 60 mg, 60 mg single iv infusion over 30 min, healthy subjects, N=6, read-out: AUC (0-24)): 299 ng·h/mL | AUC(0-t) ([2]; iv, 60 mg, 60 mg single iv infusion over 30 min, healthy subjects, N=6, read-out: AUC (0-last)): 306 ng·h/mL | Cmax ([2]; iv, 60 mg, 60 mg single iv infusion over 30 min, healthy subjects, N=6, read-out: Cmax): 369 ng/mL | Cmax ([2]; iv, 180 mg, 180 mg single iv infusion over 30 min, N=6, as used for ΔΔECG model, read-out: Cmax (Table 2)): 1530 ng/mL | AUC(0-t) ([2]; iv, 180 mg, 180 mg single iv infusion over 30 min, healthy subjects, N=6, read-out: AUC (0-24)): 1270 ng·h/mL | AUC(0-t) ([2]; iv, 180 mg, 180 mg single iv infusion over 30 min, healthy subjects, N=6, read-out: AUC (0-last)): 1550 ng·h/mL | Cmax ([2]; iv, 180 mg, 180 mg single iv infusion over 30 min, healthy subjects, N=6, read-out: Cmax): 1430 ng/mL | Cmax ([2]; iv, 360 mg, 360 mg single iv infusion over 30 min, N=5, as used for ΔΔECG model, read-out: Cmax (Table 2)): 3120 ng/mL | AUC(0-t) ([2]; iv, 360 mg, 360 mg single iv infusion over 30 min, healthy subjects, N=5, read-out: AUC (0-24)): 2960 ng·h/mL | AUC(0-t) ([2]; iv, 360 mg, 360 mg single iv infusion over 30 min, healthy subjects, N=5, read-out: AUC (0-last)): 3470 ng·h/mL | Cmax ([2]; iv, 360 mg, 360 mg single iv infusion over 30 min, healthy subjects, N=5, read-out: Cmax): 3170 ng/mL | Cmax ([2]; iv, 600 mg, 600 mg single iv infusion over 30 min, N=12, as used for ΔΔECG model, read-out: Cmax (Table 2)): 5280 ng/mL | AUC(0-t) ([2]; iv, 600 mg, 600 mg single iv infusion over 30 min, healthy subjects, N=12, read-out: AUC (0-24)): 5810 ng·h/mL | AUC(0-t) ([2]; iv, 600 mg, 600 mg single iv infusion over 30 min, healthy subjects, N=12, read-out: AUC (0-last)): 6640 ng·h/mL | Cmax ([2]; iv, 600 mg, 600 mg single iv infusion over 30 min, healthy subjects, N=12, read-out: Cmax): 5580 ng/mL | AUC(0-inf) [2, 11]: 175 ng·h/mL | half-life [2, 11]: 0.62 h | Tmax ([2]; 20 mg single iv infusion over 30 min, healthy subjects, N=6, read-out: Tmax Mean): 25.2 min | AUC(0-inf) [2, 12]: 312 ng·h/mL | half-life [2, 12]: 9.16 h | Tmax ([2]; 60 mg single iv infusion over 30 min, healthy subjects, N=6, read-out: Tmax Mean): 22.8 min | AUC(0-inf) [2, 13]: 2050 ng·h/mL | half-life [2, 13]: 54.8 h | Tmax ([2]; 180 mg single iv infusion over 30 min, healthy subjects, N=6, read-out: Tmax Mean): 27.6 min | AUC(0-inf) [2, 14]: 3830 ng·h/mL | half-life [2, 14]: 43.7 h | Tmax ([2]; 360 mg single iv infusion over 30 min, healthy subjects, N=5, read-out: Tmax Mean): 27 min | AUC(0-inf) [2, 15]: 7580 ng·h/mL | half-life [2, 15]: 41.1 h | Tmax ([2]; 600 mg single iv infusion over 30 min, healthy subjects, N=12, read-out: Tmax Mean): 27.6 min | in vitro inhibitory effects on INa-Peak (INa-Peak): relatively balanced in vitro inhibitory effects | in vitro inhibitory effects on INa-Late (INa-Late): relatively balanced in vitro inhibitory effects | safety, tolerability (healthy subjects [3]): well tolerated with no dose limiting adverse events or arrhythmias observed

COc1ccc(S(=O)(=O)NCc2cc(CN3CCCC3)c(O)c(CN3CCCC3)c2)cc1 [sulcardine, N-[4-hydroxy-3,5-bis(1-pyrrolidinylmethyl)benzyl]-4-methoxybenzenesulfonamide]
expected half-life for oral administration [4]: about 16 hours

Reference: patent US11813245B2, “Sulcardine administration for treatment of acute atrial fibrillation” (HUYABIO International, LLC, priority 2020, dated 2023)
